Data as given in US20210115104A1, “AMYLIN ANALOGUES” (Zealand Pharma A/S, priority 2015, published 2021).
*1 amine or outer side, *2 acyl side, *3 side chain or, on linkers, in order; H or OH if unused. Where a SMILES comes first, the peptide text is derived from it. Bridges are numbered along the chain shown (N, C = ends). [ ]: non-standard residue; d: D form. The star is where a group is joined. C20 diacid = O=C(O)CCCCCCCCCCCCCCCCCCC(=O)*; γGlu = O=C(O)[C@H](CCC(=O)[*:2])N[*:1]; NMeI = CC[C@H](C)[C@H](NC)C(=O)O; Sar = CNCC(=O)O

How the values were obtained:
[1] = Assessment of physical stability (Thioflavin T fibrillation); assay type: physicochemical; parameters: key: FND = fibrillation not detected; FD = fibrillation detected; details: 1 mg/ml, 40° C., ThT; for Fibrillation pH 4.0 (Ac): 50 mM acetate buffer pH 4.0, 96 hours; for Fibrillation pH 7.0 (His): 50 mM histidine buffer pH 7.0, 96 hours; for Fibrillation pH 7.0 (Phos.): 50 mM phosphate buffer pH 7.0, 96 hours
Procedure: Solutions containing (i) 1 mg/ml of test peptide, 40 μM ThT and 50 mM phosphate (Ph) buffer (pH 7.0), (ii) 1 mg/ml of test peptide, 40 μM ThT and 50 mM histidine (His) buffer (pH 7.0), and (iii) 1 mg/ml of test peptide, 40 μM ThT and 50 mM acetate (Ac) buffer (pH 4.0), were loaded in a 96-well black fluorescence plate (clear bottom) in triplicate. Data were collected at fixed intervals of 10 min, each preceded by 300 s of automixing (agitation), over a period of 96 hours at 40° C. Physical stability, expressed as lag-time of fibril formation (in hours), was defined as the intersection between two linear regressions representing the initial stable phase and the growth phase.

[2] = Assessment of chemical stability (RP-HPLC normalized purity); assay type: physicochemical; details: for Normalized purity after 7 days, 40° C., pH 4: pH 4, 0.2 mg/ml; for Normalized purity after 7 days, 40° C., pH 4 / Normalized purity after 7 days, 40° C., pH 7.5 / Normalized purity after 7 days, 40° C., pH 9: Table 1; for Normalized purity after 7 days, 40° C., pH 7.5: pH 7.5, 0.2 mg/ml; for Normalized purity after 7 days, 40° C., pH 9: pH 9, 0.2 mg/ml
Procedure: Samples of each test peptide were dissolved in MilliQ™ water, and the pH of the solution was adjusted to pH 4, pH 6, pH 7.5 or pH 9, respectively, using either HCl or NaOH. The final peptide concentration was 0.2 mg/ml. Samples were placed in glass vials and incubated at 40° C. The samples were analyzed by RP-HPLC on a C8 column with gradient elution using an ammonium formate/water eluent system, or on a C18 column with gradient elution using a trifluoroacetic acid/water eluent system. The area-percentage (area-%) of the main peak after incubation time T=t (relative to time T=0) was determined by UV spectroscopy at 220 nm.
The purity was first determined as follows:
Purity(area-%)=(area of main peak/total area of all peaks)×100.
The purity was then normalized between time points by setting purity at time 0 (T=0) to 100 for each pH value for a given peptide, as follows:
Normalised area-% at time t (T=t)=[area-%(T=t)/area-%(T=0)]×100.
The normalized purity values in Table 1 were determined after 7 days of incubation.
The chemical stability assessment described in Example 6 was repeated for four pairs of compounds, each differing only by the presence or absence of an Asn-Asn (N—N) doublet at positions 21 and 22.

SMILES | Fibrillation pH 4.0 (Ac) [1] | Fibrillation pH 7.0 (His) [1] | Fibrillation pH 7.0 (Phos.) [1] | Normalized purity after 7 days, 40° C., pH 4 [2] | Normalized purity after 7 days, 40° C., pH 7.5 [2] | Normalized purity after 7 days, 40° C., pH 9 [2] | Normalized purity pH 4 (Table 5) ([2]; pH 4, repeat of Example 6 for pairs with/without Asn-Asn at 21-22) | Normalized purity pH 6 (Table 5) ([2]; pH 6, repeat of Example 6 for pairs with/without Asn-Asn at 21-22) | Normalized purity pH 7.5 (Table 5) ([2]; pH 7.5, repeat of Example 6 for pairs with/without Asn-Asn at 21-22) | Normalized purity pH 9 (Table 5) ([2]; pH 9, repeat of Example 6 for pairs with/without Asn-Asn at 21-22)
CC[C@H](C)[C@@H](C(=O)N[C@@H](CC(C)C)C(=O)N[C@@H](CO)C(=O)N[C@@H](CO)C(=O)N[C@H](C(=O)N[C@@H](CCC(=O)O)C(=O)N[C@H](C(=O)NCC(=O)N[C@@H](CO)C(=O)N[C@@H](CCC(=O)O)C(=O)N[C@H](C(=O)N1CCC[C@H]1C(N)=O)[C@@H](C)O)C(C)C)[C@@H](C)O)N(C)C(=O)[C@H](C)NC(=O)CN(C)C(=O)[C@H](Cc1ccccc1)NC(=O)[C@H](CO)NC(=O)[C@H](CO)NC(=O)[C@H](CCCNC(=N)N)NC(=O)[C@H](Cc1c[nH]cn1)NC(=O)[C@H](CC(C)C)NC(=O)[C@H](Cc1ccccc1)NC(=O)[C@H](Cc1c[nH]cn1)NC(=O)[C@H](C)NC(=O)[C@H](CC(C)C)NC(=O)[C@H](CCCNC(=N)N)NC(=O)[C@H](CCC(N)=O)NC(=O)[C@@H](NC(=O)[C@H](C)NC(=O)[C@@H]1CSSC[C@H](NC(=O)[C@H](CCCNC(=N)N)NC(=O)CC[C@H](NC(=O)CCCCCCCCCCCCCCCCCCC(=O)O)C(=O)O)C(=O)N[C@@H](CC(N)=O)C(=O)N[C@@H]([C@@H](C)O)C(=O)N[C@@H](C)C(=O)N[C@@H]([C@@H](C)O)C(=O)N1)[C@@H](C)O [Compound 2, [19CD]-isoGlu-R-C( )-NTAT-C( )-ATQRLAHFLHRSSF-Gly(Me)-A-Ile(Me)-LSSTEVGSETP-NH2] ({C20 diacid-γGlu}-RCNTATCATQRLAHFLHRSSF[Sar]A[NMeI]LSSTEVGSETP-NH2; disulfide 2-7) | FND | FD | FND | A (A = >90%) | A (A = >90%) | B (B = 70-90%) |  |  |  | 
CC[C@H](C)[C@@H](C(=O)N[C@@H](CC(C)C)C(=O)N[C@@H](CO)C(=O)N[C@@H](CO)C(=O)N[C@H](C(=O)N[C@@H](CCC(=O)O)C(=O)N[C@H](C(=O)NCC(=O)N[C@@H](CO)C(=O)N[C@@H](CCC(=O)O)C(=O)N[C@H](C(=O)N1CCC[C@H]1C(N)=O)[C@@H](C)O)C(C)C)[C@@H](C)O)N(C)C(=O)[C@H](C)NC(=O)CN(C)C(=O)[C@H](Cc1ccccc1)NC(=O)[C@H](CO)NC(=O)[C@H](CO)NC(=O)[C@H](CCCNC(=N)N)NC(=O)[C@H](Cc1c[nH]cn1)NC(=O)[C@H](CC(C)C)NC(=O)[C@H](Cc1ccccc1)NC(=O)[C@H](CC(N)=O)NC(=O)[C@H](C)NC(=O)[C@H](CC(C)C)NC(=O)[C@H](CCCNC(=N)N)NC(=O)[C@H](CCC(N)=O)NC(=O)[C@@H](NC(=O)[C@H](C)NC(=O)[C@@H]1CSSC[C@H](NC(=O)[C@H](CCCNC(=N)N)NC(=O)CC[C@H](NC(=O)CCCCCCCCCCCCCCCCCCC(=O)O)C(=O)O)C(=O)N[C@@H](CC(N)=O)C(=O)N[C@@H]([C@@H](C)O)C(=O)N[C@@H](C)C(=O)N[C@@H]([C@@H](C)O)C(=O)N1)[C@@H](C)O [Compound 3, [19CD]-isoGlu-R-C( )-NTAT-C( )-ATQRLANFLHRSSF-Gly(Me)-A-Ile(Me)-LSSTEVGSETP-NH2] ({C20 diacid-γGlu}-RCNTATCATQRLANFLHRSSF[Sar]A[NMeI]LSSTEVGSETP-NH2; disulfide 2-7) | FD | FD | FD | A (A = >90%) | B (B = 70-90%) | B (B = 70-90%) |  |  |  | 
CC[C@H](C)[C@H](NC(=O)[C@@H]1CCCN1C(=O)CNC(=O)[C@H](Cc1ccccc1)NC(=O)[C@H](CO)NC(=O)[C@H](CO)NC(=O)[C@H](Cc1c[nH]cn1)NC(=O)[C@H](Cc1c[nH]cn1)NC(=O)[C@H](CC(C)C)NC(=O)[C@H](Cc1ccccc1)NC(=O)[C@H](CCC(=O)O)NC(=O)[C@H](C)NC(=O)[C@H](CC(C)C)NC(=O)[C@H](CCCNC(=N)N)NC(=O)[C@H](CCC(N)=O)NC(=O)[C@@H](NC(=O)[C@H](C)NC(=O)[C@@H]1CSSC[C@H](NC(=O)[C@H](CCCNC(=N)N)NC(=O)CC[C@H](NC(=O)CCCCCCCCCCCCCCCCCCC(=O)O)C(=O)O)C(=O)N[C@@H](CC(N)=O)C(=O)N[C@@H]([C@@H](C)O)C(=O)N[C@@H](C)C(=O)N[C@@H]([C@@H](C)O)C(=O)N1)[C@@H](C)O)C(=O)N[C@@H](CC(C)C)C(=O)N1CCC[C@H]1C(=O)N1CCC[C@H]1C(=O)N[C@H](C(=O)N[C@@H](CC(N)=O)C(=O)N[C@H](C(=O)NCC(=O)N[C@@H](CO)C(=O)N[C@@H](CC(N)=O)C(=O)N[C@H](C(=O)N1CCC[C@H]1C(N)=O)[C@@H](C)O)C(C)C)[C@@H](C)O [Compound 97, reference compound] ({C20 diacid-γGlu}-RCNTATCATQRLAEFLHHSSFGPILPPTNVGSNTP-NH2; disulfide 2-7) |  |  |  |  |  |  | A (A = >90%) | A (A = >90%) | A (A = >90%) | A (A = >90%)
CC[C@H](C)[C@H](NC(=O)[C@@H]1CCCN1C(=O)CNC(=O)[C@H](Cc1ccccc1)NC(=O)[C@H](CC(N)=O)NC(=O)[C@H](CC(N)=O)NC(=O)[C@H](CO)NC(=O)[C@H](CO)NC(=O)[C@H](Cc1c[nH]cn1)NC(=O)[C@@H](NC(=O)[C@H](CC(C)C)NC(=O)[C@H](Cc1ccccc1)NC(=O)[C@H](CC(N)=O)NC(=O)[C@H](C)NC(=O)[C@H](CC(C)C)NC(=O)[C@H](CCCNC(=N)N)NC(=O)[C@H](CCC(N)=O)NC(=O)[C@@H](NC(=O)[C@H](C)NC(=O)[C@@H]1CSSC[C@H](NC(=O)[C@@H](N)CCCCN)C(=O)N[C@@H](CC(N)=O)C(=O)N[C@@H]([C@@H](C)O)C(=O)N[C@@H](C)C(=O)N[C@@H]([C@@H](C)O)C(=O)N1)[C@@H](C)O)C(C)C)C(=O)N[C@@H](CC(C)C)C(=O)N1CCC[C@H]1C(=O)N1CCC[C@H]1C(=O)N[C@H](C(=O)N[C@@H](CC(N)=O)C(=O)N[C@H](C(=O)NCC(=O)N[C@@H](CO)C(=O)N[C@@H](CC(N)=O)C(=O)N[C@H](C(=O)N[C@@H](Cc1ccc(O)cc1)C(N)=O)[C@@H](C)O)C(C)C)[C@@H](C)O [Pramlintide, reference compound] | FD |  | FD |  |  |  |  |  |  | 
